Source: patent US20170318812A1, “Plant and Crop Growth Regulating/Biostimulant Formulations and Methods of Use” (Arysta Lifescience North America, LLC, priority 2014, published 2017)
Where “and” joins values, the source holds several entries; their conditions need not be identical. Equal entries are not always repeated.

Key:
Format in all cases: in vivo
[1] = system: BRADC Brachiaria decumbens (Surinam grass); assay: Ipfencarbazone biostimulant effect, early post emergence foliar application, greenhouse pots, plant height: Surinam grass; details: for HEIGHT, percent of untreated check (APoC) / HEIGHT, treatment mean: BRADC BASILISK; for Plant HEIGHT, Mean / Plant HEIGHT, single plots: Surinam grass BASILISK
From the text: (§1) The original objective of this Example was to evaluate the herbicidal effect of ipfencarbazone when applied as a post emergent treatment to a range of selected crops and weeds. Unexpectedly, crop plant growth stimulation was observed. The actual species of weeds and crops are listed in the summary data tabulated below and in FIGS. 1-13. By convention each plant species has a Bayer code (5-letter name) with the scientific name for the plant referenced in FIGS. 1-13. In each Figure, each tray contains the same configuration of weeds and/or crops. In each Figure there is one replication of each treatment (six treatments in total). The top three photographs in each Figure show the Bayer Codes and bottom three photographs are aligned with the top three facilitating viewing of the same plant species. Throughout the Examples various abbreviations as conventional shorthand notation and will be appreciated by those skilled in the art. Some exemplary abbreviations include, “CV”=Co-efficient of Variation,” “LSD”=Least Significant Difference” (G/L (gram per L) AND GA/L (gram of active ingredient per L); “SC”=suspension concentrate formulation. The diluent in all treatments was water. By convention factors that are identical in all treatments (e.g. diluent and surfactant) are not listed in each treatment.
(§2) Methods: The indicated size pots (see Tables below) are filled with a specific soil, the soil properties being indicated below. The referenced crops and weeds are planted by hand in each pot. […] The experiments include six treatments each replicated three times on each crop/weed species. At a specific time after emergence each crop and weed species was treated with ipfencarbazone plus a non-ionic surfactant (NIS). In the present Example, the surfactant employed was ENERGIC™ (non-ionic surfactant). The application timing is indicated in each of the Tables (1 or 2 leaf stage) below. Ipfencarbazone plus surfactant was diluted in water and applied at a rate equivalent to about 250 L/ha. Ipfencarbazone was applied using a track sprayer. After treatment, the pots were randomized in a greenhouse. At each assessment (indicated by “days after treatment” or DAT) the height of each plant was measured. The letters next to each mean indicate the level of statistical significance.
(§3) Replications: 3, Untreated treatments: 1, Design: Randomized Complete Block (RCB), Treatment units: Treated ‘Plot’ experimental unit size, Dry Form. Unit: %, Treated ‘Plot’ experimental unit size Width: 1 meter, Treated ‘Plot’ experimental unit size Length: 1.4 meters, Application volume: 250 L/ha, Mix size: 0.15 liters, […]

[2] = system: selected crops and weeds; assay: Post emergent treatment of a range of selected crops and weeds (FIGS. 1-13), measured and visual observation
From the text: as §1, §2

[3] = system: ZEAMX Zea mays (Corn); assay: Ipfencarbazone biostimulant effect, early post emergence foliar application, greenhouse pots, plant height: corn; details: ZEAMX AG7098PRO2
From the text: as §1, §2, §3

[4] = 15 DA-A, 62.5 g ai/ha + Energic NIS 0.2 % v/v
[5] = 15 DA-A, 125 g ai/ha + Energic NIS 0.2 % v/v
[6] = 15 DA-A, 500 g ai/ha + Energic NIS 0.2 % v/v
[7] = 28 DA-A, 62.5 g ai/ha + Energic NIS 0.2 % v/v
[8] = 28 DA-A, 125 g ai/ha + Energic NIS 0.2 % v/v
[9] = 28 DA-A, 250 g ai/ha + Energic NIS 0.2 % v/v
[10] = 28 DA-A, 500 g ai/ha + Energic NIS 0.2 % v/v

CC(C)N(C(=O)n1cnn(-c2ccc(Cl)cc2Cl)c1=O)c1ccc(F)cc1F [ARY-0572-001, ipfencarbazone]
HEIGHT, percent of untreated check (APoC) ([1]; 62.5 g ai/ha, 15 DA-A): (167.8%)
HEIGHT, treatment mean ([1]; 62.5 g ai/ha, 15 DA-A): 33.8 a cm
HEIGHT, percent of untreated check (APoC) ([1]; 62.5 g ai/ha, 28 DA-A): (164.1%)
HEIGHT, treatment mean ([1]; 62.5 g ai/ha, 28 DA-A): 55.4 bc cm
HEIGHT, percent of untreated check (APoC) ([1]; 125 g ai/ha, 15 DA-A): (139.1%)
HEIGHT, treatment mean ([1]; 125 g ai/ha, 15 DA-A): 28.1 ab cm
HEIGHT, percent of untreated check (APoC) ([1]; 125 g ai/ha, 28 DA-A): (146.7%)
HEIGHT, treatment mean ([1]; 125 g ai/ha, 28 DA-A): 49.6 cd cm
HEIGHT, percent of untreated check (APoC) ([1]; 250 g ai/ha, 15 DA-A): (141.3%)
HEIGHT, treatment mean ([1]; 250 g ai/ha, 15 DA-A): 28.5 ab cm
HEIGHT, percent of untreated check (APoC) ([1]; 250 g ai/ha, 28 DA-A): (233.6%)
HEIGHT, treatment mean ([1]; 250 g ai/ha, 28 DA-A): 78.9 a cm
HEIGHT, percent of untreated check (APoC) ([1]; 500 g ai/ha, 15 DA-A): (93.1%)
HEIGHT, treatment mean ([1]; 500 g ai/ha, 15 DA-A): 18.8 bc cm
HEIGHT, percent of untreated check (APoC) ([1]; 500 g ai/ha, 28 DA-A): (210.5%)
HEIGHT, treatment mean ([1]; 500 g ai/ha, 28 DA-A): 71.1 ab cm
HEIGHT, percent of untreated check (APoC) ([1]; 1000 g ai/ha, 15 DA-A): (54.0%)
HEIGHT, treatment mean ([1]; 1000 g ai/ha, 15 DA-A): 10.9 c cm
HEIGHT, percent of untreated check (APoC) ([1]; 1000 g ai/ha, 28 DA-A): (74.0%)
HEIGHT, treatment mean ([1]; 1000 g ai/ha, 28 DA-A): 25.0 e cm
Plant HEIGHT, Mean [1, 4]: 33.8 cm
Plant HEIGHT, single plots [1, 4]: 26.8 cm and 44.7 cm and 30.0 cm
Plant HEIGHT, Mean [1, 5]: 28.1 cm
Plant HEIGHT, single plots [1, 5]: 27.8 cm and 23.7 cm and 32.7 cm
Plant HEIGHT, Mean ([1]; 15 DA-A, 250 g ai/ha + Energic NIS 0.2 % v/v): 28.5 cm
Plant HEIGHT, Mean [1, 6]: 18.8 cm
Plant HEIGHT, single plots [1, 6]: 21.3 cm and 13.7 cm
Plant HEIGHT, Mean ([1]; 15 DA-A, 1000 g ai/ha + Energic NIS 0.2 % v/v): 10.9 cm
Plant HEIGHT, Mean [1, 7]: 55.4 cm
Plant HEIGHT, single plots [1, 7]: 48.3 cm and 76.0 cm and 42.0 cm
Plant HEIGHT, Mean [1, 8]: 49.6 cm
Plant HEIGHT, single plots [1, 8]: 53.0 cm and 44.7 cm and 51.0 cm
Plant HEIGHT, Mean [1, 9]: 78.9 cm
Plant HEIGHT, single plots [1, 9]: 89.7 cm and 91.7 cm and 55.3 cm
Plant HEIGHT, Mean [1, 10]: 71.1 cm
Plant HEIGHT, single plots [1, 10]: 67.3 cm and 77.0 cm and 69.0 cm
Plant HEIGHT, Mean ([1]; 28 DA-A, 1000 g ai/ha + Energic NIS 0.2 % v/v): 25.0 cm
effect on crop plant seedlings (growth) ([2]; about 60 to about 125 grams per hectare, corn, wheat, soybean and dry bean seedlings): positive effect
impact on plant growth ([2]; applied post emergent, all crop and weed species evaluated, all use rates): significant, positive impact on plant growth
growth rate (biomass, leaf area, plant height) ([2]; early post treatment, wheat, sorghum, corn, soybean, dry bean and cotton): meaningful increase in growth rate
herbicidal effect ([2]; higher rates, 500 and 1000 g a.i./ha, specific crops and weeds): some herbicidal effect
plant color (visual observation) ([2]; treated plants compared to the untreated control): significant greening effect
HEIGHT, percent of untreated check (APoC) ([3]; 62.5 g ai/ha, 15 DA-A): (146.7%)
HEIGHT, treatment mean ([3]; 62.5 g ai/ha, 15 DA-A): 56.1 a cm and 56.1 cm
HEIGHT, single plots (replicates) ([3]; 62.5 g ai/ha, 15 DA-A, plots 102, 205, 302): 52.3 cm and 64.8 cm and 51.0 cm
HEIGHT, percent of untreated check (APoC) ([3]; 62.5 g ai/ha, 28 DA-A): (175.8%)
HEIGHT, treatment mean ([3]; 62.5 g ai/ha, 28 DA-A): 89.4 a cm and 89.4 cm
HEIGHT, single plots (replicates) ([3]; 62.5 g ai/ha, 28 DA-A, plots 102, 205, 302): 71.3 cm and 106.7 cm and 90.3 cm
HEIGHT, percent of untreated check (APoC) ([3]; 125 g ai/ha, 15 DA-A): (156.4%)
HEIGHT, treatment mean ([3]; 125 g ai/ha, 15 DA-A): 59.8 a cm and 59.8 cm
HEIGHT, single plots (replicates) ([3]; 125 g ai/ha, 15 DA-A, plots 103, 206, 305): 62.7 cm and 59.0 cm and 57.7 cm
HEIGHT, percent of untreated check (APoC) ([3]; 125 g ai/ha, 28 DA-A): (168.8%)
HEIGHT, treatment mean ([3]; 125 g ai/ha, 28 DA-A): 85.9 a cm and 85.9 cm
HEIGHT, single plots (replicates) ([3]; 125 g ai/ha, 28 DA-A, plots 103, 206, 305): 103.0 cm and 82.0 cm and 72.7 cm
